Measurements reported in the supplement of paper PMC10307832.

Key:
Test in all cases: relative viability (nuclei count vs DMSO), 5 days (fraction); higher = more cells survive
[1] = compound: COc1cc2nc(N3CCCN(C)CC3)nc(NC3CCN(Cc4ccccc4)CC3)c2cc1OC + C[C@]1(O)C[C@@H](c2nc(-c3ccc4ccc(-c5ccccc5)nc4c3)c3c(N)nccn32)C1 [Linsitinib] (partner 1 µM)
How it was run: (§1)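 One day after seeding in 1536-well plates, lung cancer cell lines were dosed by pin tool. Dosing was either single-drug or a fixed anchor-drug dose plus five library-drug doses (not always all listed) in √10 steps. After 5 days, nuclei were stained in one fix-and-stain step and counted on 4× images, and relative viability is the nuclei count of treated wells over that of vehicle wells, given as the median of duplicate plates.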

[2] = compound: COc1cc2nc(N3CCCN(C)CC3)nc(NC3CCN(Cc4ccccc4)CC3)c2cc1OC + Cc1cc(Nc2cc(N3CCN(C)CC3)nc(Sc3ccc(NC(=O)C4CC4)cc3)n2)n[nH]1 [Tozasertib] (partner 0.1 µM)
How it was run: as §1

AZD6482 + Foretinib = compound: Cc1cc([C@@H](C)Nc2ccccc2C(=O)O)c2nc(N3CCOCC3)cc(=O)n2c1 [AZD6482] + COc1cc2c(Oc3ccc(NC(=O)C4(C(=O)Nc5ccc(F)cc5)CC4)cc3F)ccnc2cc1OCCCN1CCOCC1 [Foretinib] (partner 0.25 µM)
How it was run: as §1

AZD6482 + Alpelisib = compound: Cc1cc([C@@H](C)Nc2ccccc2C(=O)O)c2nc(N3CCOCC3)cc(=O)n2c1 [AZD6482] + Cc1nc(NC(=O)N2CCC[C@H]2C(N)=O)sc1-c1ccnc(C(C)(C)C(F)(F)F)c1 [Alpelisib] (partner 2 µM)
How it was run: as §1

UMC-11
relative viability ([1]; first compound 0.2 µM): 1.03 | relative viability ([1]; first compound 0.6325 µM): 1.03 | relative viability ([1]; first compound 2 µM): 1.05 | relative viability ([1]; first compound 6.325 µM): 1.04 | relative viability ([2]; first compound 0.2 µM): 0.202 | relative viability ([2]; first compound 0.6325 µM): 0.214 | relative viability ([2]; first compound 2 µM): 0.212 | relative viability ([2]; first compound 6.325 µM): 0.2 | relative viability (AZD6482 + Foretinib; first compound 0.08 µM): 1.01 | relative viability (AZD6482 + Foretinib; first compound 0.253 µM): 0.988 | relative viability (AZD6482 + Foretinib; first compound 0.8 µM): 0.997 | relative viability (AZD6482 + Foretinib; first compound 2.53 µM): 0.815 | relative viability (AZD6482 + Foretinib; first compound 8 µM): 1.13 | relative viability (AZD6482 + Alpelisib; first compound 0.08 µM): 1.01 | relative viability (AZD6482 + Alpelisib; first compound 0.253 µM): 0.938 | relative viability (AZD6482 + Alpelisib; first compound 0.8 µM): 0.984 | relative viability (AZD6482 + Alpelisib; first compound 2.53 µM): 0.693 | relative viability (AZD6482 + Alpelisib; first compound 8 µM): 0.965
